Patent US20110020843A1, “LABEL-FREE METHODS RELATED TO PHOSPHODIESTERASES” (priority 2009, published 2011)

Columns and labels:
[1] = tested on: quiescent A431 cells (endogenous PDE4 isoforms); experiment: Label-free Epic RWG biosensor DMR assay of PDE inhibitors in synchronized quiescent A431 cells; assay type: cell-based, human; conditions: A431; 10 micromolar; ultra-high confluent cells, 2 hrs in low CO2 (~2%) (FIG. 12A)
Protocol: Cells were typically grown using ˜1 to 2×10^4 cells per well at passage 3 to 15 suspended in 50 μl of the corresponding culture medium in the biosensor microplate, and were cultured at 37° C. under air/5% CO2 for ˜1 day. Except for A431 which was subject to ˜20 hr starvation through continuously culture in the serum-free DMEM, the other cell types were directly assayed without starvation.
Epic® wavelength interrogation system (Corning Inc., Corning, N.Y.) was used for whole cell sensing. This system consists of a temperature-control unit, an optical detection unit, and an on-board liquid handling unit with robotics. The detection unit is centered on integrated fiber optics, and enables kinetic measures of cellular responses with a time interval of ˜15 sec. The compound solutions were introduced by using the on-board liquid handling unit (i.e., pippetting).
The RWG biosensor is capable of detecting minute changes in local index of refraction near the sensor surface. Since the local index of refraction within a cell is a function of density and its distribution of biomass (e.g., proteins, molecular complexes), the biosensor exploits its evanescent wave to non-invasively detect ligand-induced dynamic mass redistribution in native cells. The evanescent wave extends into the cells and exponentially decays over distance, leading to a characteristic sensing volume of ˜150 nm, implying that any optical response mediated through the receptor activation only represents an average over the portion of the cell that the evanescent wave is sampling. The aggregation of many cellular events downstream the receptor activation determines the kinetics and amplitudes of a ligand-induced DMR.
All studies were carried out at a controlled temperature (28° C.). At least two independent sets of experiments, each with at least three replicates, were performed.
We further examined the DMR signal, if any, of the quiescent A431 cells upon treatment with PDE inhibitors. […] The quiescent A431 cells obtained under the same culture condition were used. Here the initial seeding numbers of cells were relatively low (˜20K cells per well in a 384 well Epic biosensor microplate tissue culture treated). […] After washing with the serum free medium, the cells were continuously cultured in the serum free medium for another 24 hrs to reach a quiescent state. Here the quiescent state was largely achieved through serum withdrawl. […] The cell membrane bound carbonic anahydrase is a known sensor for CO2 level.
In FIG. 4 the quiescent cells were achieved primarily through serum withdrawl. We were interested in the quiescent cells achieved through both contact inhibition and serum withdrawl. To do so, much higher initial seeding numbers of cells (>=25k cells per well for the 384 well Epic biosensor microplate) were used. […] Here both quiescent cells were subject to the same synchronization condition (2 hr incubation in the HBSS assay solution in a low CO2 environment).
Here the quiescent A431 cells were used using 22k cells per well in 384 well Epic biosensor microplates, followed by one day (˜24 hrs) culture in serum medium and 1 day (˜24 hrs) serum free medium, and sequential synchronization in the HBSS buffer solution under a relatively low CO2 environment for 2 hrs. […] For comparison, the DMR signal of cells stimulated with the buffer only (“Vehicle”) were included.

[2] = tested on: quiescent A431 cells; experiment: DMR modulation index against panel of markers in quiescent A431 cells; assay type: cell-based, human
Text: 191. To characterize the polypharmacology including PDE4 inhibitory activity of compounds, we used the known EGFR inhibitor tyrphostin 51 as an example. Quiescent A431 and proliferating A549 cells were separately exposed to tyrphostin 51 at 10 micromolar for about 1 hr to generate its primary profiles, followed by stimulation with each marker at a fixed concentration for another 1 hr or so to generate secondary profiles of the tyrphostin 51 against the panels of markers in both types of cells. Next, one or more specific DMR parameters were chosen as a readout for plotting the DMR index of the molecule.
192. The first panel of markers was contacted with quiescent A431 cells at concentrations close to each of the marker's EC80 or EC100, and DMR measurements were obtained with and EPIC® system. This panel of markers was selected from a library of markers identified in A431 cells using Epic® cellular assays. This panel included epidermal growth factor (EGF), epinephrine, nicotinic acid, and histamine. Each of these markers leads to a wide array of cell signaling. Using Epic® cellular assays in conjunction with chemical biology and cell biology approach similar to the EGFR DMR mentioned above, we have determined the pathway(s) and network interaction(s) that is accounted for each marker-induced DMR signal in A431 cells. The main observations are summarized below. Epidermal growth factor is a natural agonist for endogenous EGF receptor in A431 whose activation leads to a divergent array of cell signaling, including PLC-PI3K pathway, MAPK pathway, STAT pathway, and PKC pathway. Epinephrine is a natural agonist for endogenous beat2-adrenergic receptor in A431 cells, whose activation leads to cAMP-PKA pathway. Nicotinic acid is a natural agonist for endogenous GPR109A receptor in A431, whose activation leads to Gi-mediated signaling and MAPK pathway. Histamine is a natural agonist for endogenous histamine type 1 receptor (H1R) in A431, whose activation leads to Gq-mediated signaling and PKC pathway. […] Each DMR signal represents an averaged response of 4 replicates.
194. For the pinacidil DMR response in A549, the amplitude of the N-DMR (i.e., the amplitude 30 min after stimulation) was chosen. For the poly(I:C) DMR response in A549, the amplitude of the late DMR (i.e., the amplitude 50 min after stimulation) was chosen. For the PMA response in A549, the late DMR amplitude (i.e., the amplitude 50 min after stimulation) was chosen. For the SLIGKV-amide DMR response in A549, the P-DMR amplitude (i.e., the amplitude 20 min after stimulation) was chosen. For the forskolin response in A549 cells, the P-DMR amplitude (i.e., the amplitude 50 min after stimulation) was chosen. For the histamine response in A549, both the early DMR amplitude (i.e., amplitude 10 min after stimulation) and the late response (i.e., the amplitude 30 min after stimulation) were chosen. For the epinephrine response in A431, the P-DMR amplitude (i.e., the amplitude 50 min after stimulation) was chosen. For the nicotinic acid DMR in A431, the P-DMR amplitude (i.e., the amplitude 3 min after stimulation) was chosen. For the EGF DMR in A431, both the P-DMR (i.e., the amplitude 4 min after stimulation) and N-DMR amplitudes (i.e., the decaying amplitude between 4 min and 40 min after simulation) were chosen. For the histamine response in A431, the P-DMR amplitude (i.e., the amplitude 3 min after stimulation) was chosen. The percentage of modulation of the marker against each marker was calculated by normalizing the secondary profile of the molecule against the marker in the cell to the primary profile of the same marker acting on the same cell.

[3] = quiescent A431, 10 micromolar pretreatment ~1 hr

For `N#CC(C#N)=C(N)/C(C#N)=C/c1cc(O)c(O)c(O)c1` [tyrphostin 51], the “primary DMR profile” value [1] was “closely resembled the classic Gs-DMR signals”, the “effect of pretreatment on EGF induced DMR signal” value ([2]; A431, FIG. 12C) was “attenuation” and the “effect of pretreatment on epinephrine DMR signal” value ([2]; A431, FIG. 12C) was “partially attenuated”. The “effect of pretreatment on histamine DMR signal” value ([2]; A431, FIG. 12C) was “partially attenuated”, the “modulation of EGF N-DMR (decaying amplitude 4 to 40 min)” value [2, 3] was −5% and the “modulation of EGF P-DMR (amplitude 4 min)” value [2, 3] was −36%. For the same molecule, the “modulation of epinephrine DMR (P-DMR amplitude 50 min)” value [2, 3] was −68%, the “modulation of histamine DMR (P-DMR amplitude 3 min)” value [2, 3] was −16% and the “modulation of nicotinic acid DMR (P-DMR amplitude 3 min)” value [2, 3] was “+4%”.
